Literature values as cited in US12251380B2, “Depot systems comprising cariprazine or salts thereof” (Mapi Pharma Ltd., priority 2022, dated 2025).
Read-outs that look alike come from different tables or passages of the source.

Conditions: schizophrenic patients

Row | elimination half-life (oral Cariprazine) | elimination half-life (active metabolite after oral Cariprazine) | Structure (SMILES)
1 | 2 to 5 days | – | CN(C)C(=O)N[C@H]1CC[C@H](CCN2CCN(c3cccc(Cl)c3Cl)CC2)CC1 [Cariprazine, trans-N-{4-[2-[4-(2,3-dichlorophenyl)piperazine-1-yl]ethyl]cyclohexyl}-N′,N′-dimethylurea]
2 | – | 2-3 weeks | NC(=O)NC1CCC(CCN2CCN(c3cccc(Cl)c3Cl)CC2)CC1 (centres unmarked) [didesmethyl Cariprazine]
